Where only a bound is given, the exact number is not on record here.

This assay addresses T1, hFXR (Homo sapiens, UniProt Q96RI1).
T1 construct: expressed in transfected cells; host or cells: CV-1 cells
T1 sequence (Q96RI1 1-486): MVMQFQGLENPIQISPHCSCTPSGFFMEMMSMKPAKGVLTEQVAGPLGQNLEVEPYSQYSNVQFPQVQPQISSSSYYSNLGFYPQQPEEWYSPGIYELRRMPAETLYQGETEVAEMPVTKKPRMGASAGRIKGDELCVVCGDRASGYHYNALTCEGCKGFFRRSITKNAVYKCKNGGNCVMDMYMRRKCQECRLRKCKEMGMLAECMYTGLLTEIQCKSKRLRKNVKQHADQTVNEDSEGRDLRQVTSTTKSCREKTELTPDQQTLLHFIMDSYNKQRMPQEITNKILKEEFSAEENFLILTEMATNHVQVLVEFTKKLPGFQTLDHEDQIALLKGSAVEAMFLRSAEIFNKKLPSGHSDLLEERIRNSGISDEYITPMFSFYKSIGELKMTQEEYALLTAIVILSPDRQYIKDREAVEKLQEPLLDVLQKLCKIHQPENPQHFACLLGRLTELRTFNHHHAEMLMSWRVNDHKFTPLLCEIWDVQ
T1 sequence (P19793 1-462 partner): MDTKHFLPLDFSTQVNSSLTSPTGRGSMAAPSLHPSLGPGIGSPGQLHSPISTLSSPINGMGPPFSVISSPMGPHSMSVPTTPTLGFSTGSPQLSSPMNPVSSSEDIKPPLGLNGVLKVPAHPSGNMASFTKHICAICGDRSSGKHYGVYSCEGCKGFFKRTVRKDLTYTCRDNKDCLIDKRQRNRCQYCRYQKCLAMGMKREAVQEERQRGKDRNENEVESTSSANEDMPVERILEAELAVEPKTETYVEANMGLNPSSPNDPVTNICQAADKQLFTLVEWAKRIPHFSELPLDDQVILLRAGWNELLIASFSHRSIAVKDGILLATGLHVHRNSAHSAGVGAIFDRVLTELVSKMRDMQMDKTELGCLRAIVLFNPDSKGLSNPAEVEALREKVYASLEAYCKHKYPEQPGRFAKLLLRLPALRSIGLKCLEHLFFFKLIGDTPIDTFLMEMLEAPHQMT
The assay can be described thus: In Vitro FXR Assay (TK): TK-ECRE-luc reporter in transfected CV-1 cells. Type of assay: cell-based. Conditions: 18 hrs, luminescence, maximum efficacy of <25% of the Fexarmine control classified as '+'. In a few lines: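 CV-1 cells in DMEM with 10% charcoal-stripped FBS were co-transfected with hFXR, hRXR, TK-ECRE-luc reporter and pCMX-YFP plasmids. After 18 h, compounds serially diluted in DMSO were added for a further 18 h, then cells were lysed and luminescence read.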

Compound `CN(C)c1ccc([C@H]2CC[C@H](CN(c3cccc(-c4cnn(C5CC5)c4)c3)C(=O)[C@H]3CC[C@H](C(=O)O)CC3)CC2)cn1` [Compound 17.14, trans-4-((3-(1-Cyclopropyl-1H-pyrazol-4-yl)phenyl)((trans-4-(6-(dimethylamino)pyridin-3-yl)cyclohexyl)methyl)carbamoyl) cyclohexanecarboxylic acid] had an EC50 of no more than 250 nM.

Compound `COc1ccc([C@H]2CC[C@H](CN(c3cccc(-c4coc(C(C)C)n4)c3)C(=O)[C@H]3CC[C@H](OC(=O)NCCCO)CC3)CC2)nc1C` [Compound 6.49, trans-4-((3-(2-Isopropyloxazol-4-yl)phenyl)((trans-4-(5-methoxy-6-methylpyridin-2-yl)cyclohexyl)methyl)carbamoyl)cyclohexyl (3-hydroxypropyl)carbamate] displayed an EC50 of no more than 250 nM.

`COc1ccc([C@H]2CC[C@H](CN(c3cccc(-c4cnn(C5CC5)c4)c3)C(=O)[C@H]3CC[C@H](OC(=O)NCCNS(C)(=O)=O)CC3)CC2)cc1C` [Compound 26.24, trans-4-((3-(1-Cyclopropyl-1H-pyrazol-4-yl)phenyl)((trans-4-(4-methoxy-3-methylphenyl)cyclohexyl)methyl)carbamoyl)cyclohexyl (2-(methylsulfonamido)ethyl)carbamate]: the EC50 was no more than 250 nM.

With `COc1ccc([C@H]2CC[C@H](CN(c3cccc(-c4cnc(C5CC5)s4)c3)C(=O)[C@H]3CC[C@H](OCCN(C)C)CC3)CC2)cc1C` [Compound 13.05, trans-N-(3-(2-Cyclopropylthiazol-5-yl)phenyl)-4-(2-(dimethylamino)ethoxy)-N-((trans-4-(4-methoxy-3-methylphenyl)cyclohexyl)methyl) cyclohexanecarboxamide], the EC50 fell in the range of 250 to 1000 nM.

`COc1ccc([C@H]2CC[C@@H](CN(c3cccc(-c4coc(C5CC5)n4)c3)C(=O)[C@H]3CC[C@H](CC(=O)O)CC3)CC2)nc1C` [Compound 21.04, 2-(trans-4-((3-(2-Cyclopropyloxazol-4-yl)phenyl)((cis-4-(5-methoxy-6-methylpyridin-2-yl)cyclohexyl)methyl)carbamoyl)cyclohexyl) acetic acid]: the EC50 was no less than 1000 nM.

`COc1ccc([C@H]2CC[C@H](CN(c3cccc(-c4coc(C5CC5)n4)c3)C(=O)[C@H]3CC[C@H](OC(=O)N4CC(O)C4)CC3)CC2)cc1C#N` [Compound 7.68, trans-4-(((trans-4-(3-Cyano-4-methoxyphenyl)cyclohexyl)methyl)(3-(2-cyclopropyloxazol-4-yl)phenyl)carbamoyl)cyclohexyl 3-hydroxyazetidine-1-carboxylate] displayed an EC50 of no more than 250 nM.

With `CNC(=O)O[C@H]1CC[C@H](C(=O)N(C[C@H]2CC[C@H](c3ccc(OC)c(C#N)c3)CC2)c2cc(-c3cnc(C4CC4)s3)ccn2)CC1` [Compound 5.05, trans-4-(((trans-4-(3-Cyano-4-methoxyphenyl)cyclohexyl)methyl)(4-(2-cyclopropylthiazol-5-yl)pyridin-2-yl)carbamoyl)cyclohexyl methylcarbamate], the 50% effective concentration (EC50) was no more than 250 nM.

`CNC(=O)[C@H]1CC[C@H](C(=O)N(C[C@H]2CC[C@H](c3ccc(OC)c(C)c3)CC2)c2cccc(-c3cnc(OC)s3)c2)CC1` [Compound 24, trans-N^1-((trans-4-(4-Methoxy-3-methylphenyl)cyclohexyl)methyl)-N^1-(3-(2-methoxythiazol-5-yl)phenyl)-M-methylcyclohexane-1,4-dicarboxamide] returned an EC50 of no more than 250 nM.

As for `COc1ccc([C@H]2CC[C@H](CN(c3cc(-c4coc(C5CC5)n4)ccn3)C(=O)[C@H]3CC[C@H](OC(=O)NCCCO)CC3)CC2)nc1C` [Compound 6.62], the concentration for a half-maximal effect (EC50) was no more than 250 nM.

In turn, `COc1ccc([C@H]2CC[C@H](CN(c3cccc(-c4cnn(C5CC5)c4)c3)C(=O)[C@H]3CC[C@H](OC(=O)NCCN)CC3)CC2)cc1C` [Compound 4.16, trans-4-((3-(1-Cyclopropyl-1H-pyrazol-4-yl)phenyl)((trans-4-(4-methoxy-3-methylphenyl)cyclohexyl)methyl)carbamoyl)cyclohexyl (2-aminoethyl)carbamate] had an EC50 of no more than 250 nM.

The compound `COc1ccc(C23CCC(CN(c4cccc(-c5cnn(C6CC6)c5)c4)C(=O)[C@H]4CC[C@H](C(=O)O)CC4)(CC2)CC3)cc1C` [Compound 17.17, trans-4-((3-(1-Cyclopropyl-1H-pyrazol-4-yl)phenyl)((4-(4-methoxy-3-methylphenyl)bicyclo[2.2.2]octan-1-yl)methyl)carbamoyl) cyclohexanecarboxylic acid] gave an EC50 of no more than 250 nM.

With `COc1ccc([C@H]2CC[C@H](CN(c3cc(-c4cnc(C5CC5)s4)ccn3)C(=O)[C@H]3CC[C@H](OC(=O)N4CC(O)C4)CC3)CC2)cc1C` [Compound 7.03, trans-4-((4-(2-Cyclopropylthiazol-5-yl)pyridin-2-yl)((trans-4-(4-methoxy-3-methylphenyl)cyclohexyl)methyl)carbamoyl)cyclohexyl 3-hydroxyazetidine-1-carboxylate], the EC50 is no more than 250 nM.

The compound `CCOC(=O)C[C@H]1CC[C@H](C(=O)N(C[C@H]2CC[C@H](c3ccc(OC)c(C)n3)CC2)c2cccc(-c3cnn(C4CC4)c3)c2)CC1` [Compound 14, Ethyl 2-(trans-4-((3-(1-cyclopropyl-1H-pyrazol-4-yl)phenyl)((trans-4-(5-methoxy-6-methylpyridin-2-yl)cyclohexyl)methyl)carbamoyl)cyclohexyl)acetate] had an EC50 of no more than 250 nM.

Turning to `CNC(=O)O[C@H]1CC[C@H](C(=O)N(C[C@H]2CC[C@H](c3ccc(OC)c(C)n3)CC2)c2cccc(-c3cnn(C(C)C)c3)c2)CC1` [Compound 1.10, trans-4-((3-(1-Isopropyl-1H-pyrazol-4-yl)phenyl)((trans-4-(5-methoxy-6-methylpyridin-2-yl)cyclohexyl)methyl)carbamoyl)cyclohexyl methylcarbamate], the concentration for a half-maximal effect (EC50) is no more than 250 nM.

`COc1ccc([C@H]2CC[C@H](CN(c3cccc(-c4cnn(C5CC5)c4)c3)C(=O)[C@H]3CC[C@H](NC(=O)CS(C)(=O)=O)CC3)CC2)cc1C` [Compound 31.02] displayed an EC50 of 250 to 1000 nM.

As for `CNC(=O)O[C@H]1CC[C@H](C(=O)N(C[C@H]2CC[C@H](c3ccc(OC)c(C#N)n3)CC2)c2cccc(-c3cnc(C4CC4)s3)c2)CC1` [Compound 5.06, trans-4-(((trans-4-(6-Cyano-5-methoxypyridin-2-yl)cyclohexyl)methyl)(3-(2-cyclopropylthiazol-5-yl)phenyl)carbamoyl)cyclohexyl methylcarbamate], the EC50 is no more than 250 nM.

In the case of `COc1ccc([C@H]2CC[C@H](CN(c3cccc(-c4cnn(C5CC5)c4)c3)C(=O)[C@H]3CC[C@H](CC(=O)O)CC3)CC2)nc1C` [Compound 17.24, 2-(trans-4-((3-(1-Cyclopropyl-1H-pyrazol-4-yl)phenyl)((trans-4-(5-methoxy-6-methylpyridin-2-yl)cyclohexyl)methyl)carbamoyl)cyclohexyl)acetic acid], the 50% effective concentration (EC50) was no more than 250 nM.

In the case of `COc1ccc([C@H]2CC[C@H](CN(c3cccc(-c4cnn(C(C)C)c4)c3)C(=O)[C@H]3CC[C@H](NC(C)=O)CC3)CC2)cc1C` [Compound 26.10, trans-4-Acetamido-N-(3-(1-isopropyl-1H-pyrazol-4-yl)phenyl)-N-((trans-4-(4-methoxy-3-methylphenyl)cyclohexyl)methyl) cyclohexanecarboxamide], the EC50 was no more than 250 nM.

One may read the EC50 as the concentration at which the effect is half-maximal. Read a low EC50 as an effect from little substance.

The record behind these values is patent publication US20220089575A1, “FARNESOID X RECEPTOR AGONISTS AND USES THEREOF” (Metacrine, Inc., priority 2017, published 2022).
